This note sets out measurements from patent US8853175B2, “Phenethylsulfone isoindoline derivatives and their use” (Celgene Corporation, priority 2010, dated 2014).

The subject of one experiment is PDE 4. In words: PDE 4 inhibition assay. It counts as biochemical, human. As to conditions: crude PDE 4 enzyme from U937 cells; 1 μM cAMP; read-out: IC50 for inhibiting PDE 4. The protocol:
PDE 4 inhibition may be assays using any methods conventionally known in the art. For example, using a modification of the method of Hill and Mitchell [Hill and Mitchell, Faseb J., 8, A217 (1994)], U937 cells (a human promonocytic cell line) are grown to 1×10^6 cells/mL and collected by centrifugation. A cell pellet of 1×10^9 cells is washed in phosphate buffered saline and then frozen at −70° C. for later purification or immediately lysed in cold homogenization buffer (20 mM Tris-HCl, pH 7.1, 3 mM 2-mercaptoethanol, 1 mM magnesium chloride, 0.1 mM ethylene glycol-bis-(β-aminoethyl ether)-N,N,N^1,N^1-tetraacetic acid (EGTA), 1 μM phenylmethylsulfonyl fluoride (PMSF), and 1 μg/mL leupeptin). Cells are homogenized with 20 strokes in a Dounce homogenizer and the supernatant containing the cytosolic fraction are obtained by centrifugation. The supernatant is then loaded onto a Sephacryl S-200 column equilibrated in homogenization buffer. […]
The phosphodiesterase assay is carried out based on the procedure described by Hill and Mitchell. […] Each data point is carried out in duplicate and activity is expressed as percentage of control. The IC50s of the compounds are then determined from dose response curves of a minimum of three independent experiments.

For a further experiment, the system named is TNFα. In words: TNFα inhibition assay in PBMC (LPS-stimulated). The following applies: Homo sapiens; PBMC stimulated with LPS 1 ng/ml; TNFα by ELISA; read-out: IC50 for inhibiting TNFα. It counts as cell-based. The protocol: Peripheral blood mononuclear cells (PBMC) from normal donors are obtained by Ficoll Hypaque (Pharmacia, Piscataway, N.J., USA) density centrifugation. Cells are cultured in RPMI 1640 (Life Technologies, Grand Island, N.Y., USA) supplemented with 10% AB+human serum (Gemini Bio-products, Woodland, Calif., USA), 2 mM L-glutamine, 100 U/ml penicillin, and 100 μg/ml streptomycin (Life Technologies).
PBMC (2×10^5 cells) are plated in 96-well flat-bottom Costar tissue culture plates (Corning, N.Y., USA) in triplicate. Cells are stimulated with LPS (from Salmonella abortus equi, Sigma cat. no. L-1887, St. Louis, Mo. USA) at 1 ng/ml final in the absence or presence of compounds. Compounds provided herein are dissolved in DMSO (Sigma) and further dilutions are done in culture medium immediately before use. The final DMSO concentration in all assays can be about 0.25%. Compounds are added to cells 1 hour before LTS stimulation. Cells are then incubated for 18-20 hours at 37° C. in 5% CO2, and supernatants are then collected, diluted with culture medium and assayed for TNFα levels by ELISA (Endogen, Boston, Mass. USA). IC50s are calculated using non-linear regression, sigmoidal dose-response, constraining the top to 100% and bottom to 0%, allowing variable slope (GraphPad Prism v3.02).
Background: An ELISA detects its analyte on a solid surface through an enzyme-linked reagent.

Structures are written as SMILES.

In general, IC50 refers to the concentration at which inhibition is half-maximal. On to `CCOc1cc([C@@H](CS(C)(=O)=O)N2C(=O)c3cccc(NC(=O)CO)c3C2=O)ccc1OC` [(1S)—N-{2-[1-(3-Ethoxy-4-Methoxy-Phenyl)-2-Methanesulfonyl-Ethyl]-1,3-Dioxo-2,3-Dihydro-1H-Isoindol-4-yl}-2-Hydroxy-Acetamide], for which the IC50 is ~10 nM in the experiment on PDE 4 and ~200 nM with TNFα.
